In patent US20090123545A1, “Rapid Onset and Short Term Modafinil Compositions and Methods of Use Thereof” (priority 2005, published 2009):
Values joined by “and” are separate entries in the source; they are usually repeats but may differ in a detail not shown here. Equal values may be shown once. “Also recorded” adds a separate entry of the source. Read-outs that look alike come from different tables or passages of the source.

What was measured:
normal human volunteer = test: Double blind study of sub-lingual d-modafinil composition in a normal human volunteer; type: in vivo
Experimental: The test subject was given three vials: one vial containing the base formulation (as in Example 1) to test the taste and delivery means, and two coded vials. One of the coded vials contained 100 mg of d-modafinil formulation, and the second coded vial contained placebo (an equivalent amount of formulation).
The subject was instructed to place the contents of the test formulation under the tongue, to allow the formulation to dissolve over two minutes, and to rinse any residual material with some water.

extracellular dopamine = details: in vivo; cited from earlier work
dopamine reuptake pump = dopamine reuptake pump (Homo sapiens, UniProt Q01959); details: in vitro studies; cited from earlier work
[1] = cited from earlier work
normal human volunteers = test: Double blind crossover study of sub-lingual d-modafinil in normal human volunteers (VAS, difficulty to fall asleep); type: in vivo; parameters: key to Visual Analog Scale (0 to 3), difficulty to fall asleep: 0: fell asleep as usual; 1: slight, noticeable change; 2: noticeable change; 3: extreme change (kept awake most of night); details: 200 mg sublingual, one hour before bedtime
Experimental: Two subjects received a set of coded vials containing either 200 mg of d-modafinil formulated according to Example 1 or an equivalent placebo formulation.
The subjects were given the following instructions:
Start testing at approximately the same time every evening, one hour before bedtime.
Randomly select one of the coded vials each day.
Open the vials and place the powder under your tongue.
Allow the powder to dissolve slowly for approximately 1-2 minutes.
After the powder is fully dissolved, you may drink some water.
Record observations in a Visual Analogue Scale (VAS) describing the difficulty to fall asleep.

mice = details: cited from earlier work

Chain of dopamine reuptake pump (Q01959 whole entry): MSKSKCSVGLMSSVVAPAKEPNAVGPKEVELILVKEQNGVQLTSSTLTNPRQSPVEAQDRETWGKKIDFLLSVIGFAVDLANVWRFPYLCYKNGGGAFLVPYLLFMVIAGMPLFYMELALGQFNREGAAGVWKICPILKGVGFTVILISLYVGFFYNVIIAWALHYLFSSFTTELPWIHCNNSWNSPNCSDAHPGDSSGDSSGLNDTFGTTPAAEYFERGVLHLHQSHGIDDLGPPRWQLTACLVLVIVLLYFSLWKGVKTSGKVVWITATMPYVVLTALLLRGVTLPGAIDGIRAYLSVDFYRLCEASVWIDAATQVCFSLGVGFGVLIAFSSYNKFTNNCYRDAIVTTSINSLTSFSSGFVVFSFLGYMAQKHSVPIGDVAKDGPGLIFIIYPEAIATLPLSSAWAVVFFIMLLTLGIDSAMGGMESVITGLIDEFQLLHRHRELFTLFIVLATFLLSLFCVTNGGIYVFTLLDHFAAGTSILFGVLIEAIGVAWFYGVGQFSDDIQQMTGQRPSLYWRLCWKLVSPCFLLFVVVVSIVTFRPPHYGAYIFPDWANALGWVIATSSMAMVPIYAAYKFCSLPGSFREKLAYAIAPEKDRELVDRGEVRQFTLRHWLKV

SMILES | effect on wakefulness (subject's report) (normal human volunteer; 200 mg Provigil at 10 p.m., same subject about one week before, not blinded) | effect on extracellular dopamine (extracellular dopamine) | effect on reuptake of dopamine (dopamine reuptake pump) | time to reach maximum plasma concentrations ([1]; after a single oral dose) | half-life (T1/2) in the human body [1] | fraction of modafinil eliminated by the liver ([1]; ingestion of PROVIGIL tablets, humans) | effect on wakefulness (subject's blinded report) (normal human volunteer; 100 mg sublingual at 11:15 p.m., one subject) | wakefulness effect compared with 200 mg racemic modafinil (normal human volunteer; 100 mg sublingual, same subject) | subject's reported observations on sleep and alertness (normal human volunteers) | Visual Analog Scale (0 to 3), difficulty to fall asleep (normal human volunteers; Subject 1, Subject 2) | pharmacological activity compared with the modafinil racemic compound (mice) | amount in the circulation compared with l-modafinil ([1]; after use of racemic modafinil) | half-life (T1/2) in the human body ([1]; listed as 1-modafinil)
NC(=O)C[S+]([O-])C(c1ccccc1)c1ccccc1 (racemic) [racemic modafinil, 2-[(diphenylmethyl)sulfinyl]acetamide] | very pronounced effect | increases extracellular dopamine | inhibit the reuptake of dopamine | 2 to 4 h | about 15 hours | ≤ 90% | – | – | – | – | – | – | –
NC(=O)C[S@+]([O-])C(c1ccccc1)c1ccccc1 [d-modafinil, (d)-(+)-modafinil] | – | – | – | – | – | – | active | neither test substance kept them awake as strongly or as long as the 200 mg racemic modafinil | took longer than usual to fall asleep; also recorded: significantly more alert | 1 and 2 | same pharmacological activity | three times less | –
NC(=O)C[S@@+]([O-])C(c1ccccc1)c1ccccc1 [l-modafinil] | – | – | – | – | 10 to 14 h | – | – | – | – | – | same pharmacological activity | – | 13 to 16 h
